Here are results for 1 compound from patent publication US20110059114A1, “Compositions and Methods for the Treatment of Radioresistant Glioma Stem Cells” (DUKE UNIVERSITY, priority 2009, published 2011).

Holding throughout (type): cell-based, human
One experiment has as its system CD133+ glioma stem cells. As to the kind of experiment: Caspase-Glo 3/7 assay, relative caspase 3/7 activities. On the procedure:
FIG. 2 is a series of graphs illustrating that γ-secretase inhibitors enhance radiation-induced cell death in glioma stem cells. (A) T4302 CD 133+ cells were pre-treated with DAPT or L685,458 for 4 hours and irradiated at 3 Gy. Percentage of dead cells was determined by trypan blue exclusion assay at 48 hours after radiation exposure. (B) T4302 CD 133+ cells were treated with GSIs ±radiation as indicated. Cells were then plated at 3000 cells per well in 96-well plates. Relative caspase 3/7 activities were determined by normalizing caspase activities to the corresponding cell titers. (C) T4302 CD 133+ cells were treated as described in FIG. 2A. 24 or 48 hours after radiation exposure, cells were labeled with FITC-conjugated Annexin V staining kit (BD Sciences) according to manufacturer's instructions and analyzed by flow cytometry. […] Relative caspase 3/7 activities were determined at 72 hours after radiation. (E) T4302 CD133+ cells were pre-treated with DAPT at indicated concentrations for 4 hours and irradiated at 3 Gy. Relative caspase activities were determined at 48 or 72 hours after radiation. *: p<0.01 by Student's t-test; #: p<0.01 by one-way ANOVA.
The caspase activities at 48 or 72 hours after radiation were measured using the Caspase-Glo 3/7 assay (Promega) according to the manufacturer's instructions. The caspase activities were normalized to the corresponding cell titers to obtain the relative caspase 3/7 activities.

The test system of the next experiment is T4302 CD133+ cells. As to the kind of experiment: Annexin V staining, flow cytometry. How it is done: FIG. 2 is a series of graphs illustrating that γ-secretase inhibitors enhance radiation-induced cell death in glioma stem cells. (A) T4302 CD 133+ cells were pre-treated with DAPT or L685,458 for 4 hours and irradiated at 3 Gy. Percentage of dead cells was determined by trypan blue exclusion assay at 48 hours after radiation exposure. (B) T4302 CD 133+ cells were treated with GSIs ±radiation as indicated. Cells were then plated at 3000 cells per well in 96-well plates. Relative caspase 3/7 activities were determined by normalizing caspase activities to the corresponding cell titers. (C) T4302 CD 133+ cells were treated as described in FIG. 2A. 24 or 48 hours after radiation exposure, cells were labeled with FITC-conjugated Annexin V staining kit (BD Sciences) according to manufacturer's instructions and analyzed by flow cytometry. (D) T4302 CD 133+ cells were pre-treated with 2 μM DAPT for 4 hours, and were left unirradiated or irradiated at 1, 2 or 3 Gy. Relative caspase 3/7 activities were determined at 72 hours after radiation. (E) T4302 CD133+ cells were pre-treated with DAPT at indicated concentrations for 4 hours and irradiated at 3 Gy. Relative caspase activities were determined at 48 or 72 hours after radiation. *: p<0.01 by Student's t-test; #: p<0.01 by one-way ANOVA.

In the next experiment the test system is Akt. Kind of experiment: Immunoblotting of phospho-Akt (S473). Conditions: 2 μM DAPT. How it is done: FIG. 5 is a set of immunoblots and a graph illustrating that the Notch pathway regulates radioresistance of glioma stem cells via the Akt pathway and Mcl-1. T4302 CD 133+ cells were infected with control lentivirus or lentivirus directing expression of NICD2. Cells were pre-treated with or without 2 μM DPAT for 4 hours and exposed to 3-Gy radiation. Irradiated cells were collected at 24 or 48 hours after radiation, and sham-irradiated cells were collected at 48 hours after radiation. (A, C, D) Protein levels of phospho-Akt (S473), total Akt, PTEN, Bcl-2, Bcl-xL, Mcl-1, phospho-p53 (S15), total p53 and PUMA were assessed by immunoblotting. Actin was blotted as the loading control. (B) Control cells or NICD2-expressing cells were pre-treated with 10 μM PI3K inhibitor, LY294002, or 50 μM Akt inhibitor III (SH-6), for 4 hours prior to radiation exposure. Relative caspase 3/7 activities were determined at 48 hours after radiation exposure. #: p<0.001, by one-way ANOVA.
FIG. 13 is an immunoblot illustrating that LY294002 or Akt inhibitor III reduce Akt activity in glioma stem cells. T4302 glioma stem cells were treated with 10 μM LY294002 or 50 μM Akt inhibitor III (SH-6) in the presence or absence of radiation. Cells were collected for immunoblotting at 48 hours after radiation as described in FIG. 5.
Antibodies, DNA constructs, lentiviruses and other reagents. […]
On the technique in general: Immunoblotting shows a protein as a band on a membrane.

As for `CC(NC(=O)Cc1cc(F)cc(F)c1)C(=O)NC(C(=O)OC(C)(C)C)c1ccccc1` [DAPT, N-[N-(3,5-Difluorophenacetyl-L-alanyl)]-S-phenylglycine t-Butyl Ester], the radiosensitizing effect result with CD133+ glioma stem cells (200 nM DAPT, 3 Gy) is reported as “still being effective”. Further, the radiation-induced cell death entry in the experiment with CD133+ glioma stem cells (2 μM DAPT added 24 hours after radiation, T4105 or T4302 CD133+ cells) is given as “increased radiation-induced cell death”. The “radiation-induced cell death (caspase 3/7)” value in the experiment on CD133+ glioma stem cells (2 μM, radiation 1, 2 or 3 Gy, 72 hours) was “enhanced radiation-induced cell death”. For the same compound, the “radiosensitizing effects, dependence on concentration” value in the experiment with CD133+ glioma stem cells (3 Gy, 48 or 72 hours after radiation) was “concentration-dependent effect”. In addition, in the experiment on CD133+ glioma stem cells (irradiated, T4302 CD133+), the “radiation-induced cell death of cells infected with control lentivirus” value is “sensitive to DAPT”. The “Annexin V-positive labeled cells” value was “not obvious” in the experiment on T4302 CD133+ cells (24 hours following 3 Gy radiation) and “significantly increased” in the experiment on T4302 CD133+ cells (48 hours following 3 Gy radiation). In addition, the “percentage of Annexin V-positive cells” value with T4302 CD133+ cells (NICD2 expression) is “failed to increase”. In addition, the “Akt activation (phospho-S473 Akt)” value in the experiment with Akt (3-Gy radiation, control cells) is given as “reduced Akt activation”. Also, the “Akt activities increased by NICD2 expression” value in the experiment on Akt (NICD2-expressing cells) is reported as “partially attenuated but not abolished”.
